# Data from US5114918A, “Endothelin antagonistic cyclic pentapeptides” (Banyu Pharmaceutical Co., Ltd., priority 1989, dated 1992).
# Numbered stars: 1 amine (or outer) side, 2 acyl side, 3 side chain; on linkers, the order of the positions; unused ones are H or OH. Square brackets hold non-standard residues; d marks the D form. Peptide text beside a SMILES is read from it. * marks the point of attachment. X2 = CNC(=O)Cn1cc(C[C@@H](N[*:1])C(=O)[*:2])c2ccccc21; X3 = NC(=O)Cn1cc(C[C@@H](N[*:1])C(=O)[*:2])c2ccccc21; dGly(2-thienyl) = N[C@@H](C(=O)O)c1cccs1; X7 = O=C([C@H](N[*:1])c1ccco1)[*:2]; d(aIle) = CC[C@H](C)[C@@H](N)C(=O)O; Cya = N[C@@H](CS(=O)(=O)O)C(=O)O; Hyp = O=C(O)[C@@H]1C[C@@H](O)CN1; dCya = N[C@H](CS(=O)(=O)O)C(=O)O; dPen = CC(C)(S)[C@@H](N)C(=O)O; NMeL = CN[C@@H](CC(C)C)C(=O)O; Pip = O=C(O)[C@@H]1CCCCN1; Ac6c = NC1(C(=O)O)CCCCC1; Nle = CCCC[C@H](N)C(=O)O; Aib = CC(C)(N)C(=O)O; βAla = NCCC(=O)O; Sar = CNCC(=O)O; For = O=C*
# Biological target: T1, endothelin receptor (membrane of smooth muscle tissue of porcine aorta) (Sus scrofa, UniProt Q29010)
# T1 construct: from tissue; host or cells: smooth muscle tissue of porcine aorta (membrane fraction)
# T1 sequence (Q29010 21-427): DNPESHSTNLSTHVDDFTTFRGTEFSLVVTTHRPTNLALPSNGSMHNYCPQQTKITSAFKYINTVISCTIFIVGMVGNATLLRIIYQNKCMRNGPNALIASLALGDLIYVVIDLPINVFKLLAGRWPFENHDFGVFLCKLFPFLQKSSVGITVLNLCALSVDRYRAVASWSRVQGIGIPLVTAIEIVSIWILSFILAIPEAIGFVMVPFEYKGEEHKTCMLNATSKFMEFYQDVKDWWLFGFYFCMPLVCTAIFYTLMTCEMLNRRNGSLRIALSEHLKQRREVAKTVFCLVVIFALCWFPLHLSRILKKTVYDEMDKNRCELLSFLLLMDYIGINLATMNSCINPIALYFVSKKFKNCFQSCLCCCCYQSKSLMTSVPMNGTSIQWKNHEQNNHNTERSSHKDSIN
# Assay: Endothelin binding inhibition test (125I-endothelin-1, porcine aorta smooth muscle membrane)
# Settings: 1.1 μM of the test compound; porcine aorta smooth muscle membrane; 25° C, 4 hours
# Description: Endothelin binding inhibition test
# The smooth muscle tissue of porcine aorta was homogenized in a buffer solution of 10 mM MOPS, pH 7.4, at 4° C. by a polytron. To the homogenate, sucrose was added to a concentration of 20%, and the mixture was centrifuged at 1,000×g for 15 minutes, and the supernatant was further centrifuged at 10,000×g for 15 minutes. The supernatant thereof was further centrifuged at 90,000×g for 40 minutes. The membrane precipitate thereby obtained was suspended in a buffer solution of 5 mM HEPES/Tris, pH 7.4, at a concentration of 25 mg/ml.
# Then, 16 μl of this membrane suspension was added to 340 μl of 50 mM Tris/HCl buffer, pH 7.4, containing 10 μM calcium chloride, 10 μM magnesium chloride, 0.1 mM PMSF, 1 μM pepstatin A, 2 μM leupeptin, 1 mM 1,10-phenanthroline and 0.1% bovine serum albumin. To this suspension, 4 μl of (A) endothelin-1 (for nonspecific binding: 0.2 μM as the final concentration), (B) buffer solution A (for total control binding), or (C) a test compound (1.1 μM as the final concentration), was added. Further, to each suspension, 40 μl of ^125 I-endothelin-1 (12000-18000 cpm) was added. These mixtures were incubated at 25° C for 4 hours, then subjected to filtration on a glass filter GF/C and then washed with 5 mM HEPES/Tris, pH 7.4, containing 0.3% bovine serum albumin. Then, the radioactivity trapped by the glass filter was measured, and the ^125 I-endothelin-1 binding inhibition D (%) at 1.1 μM of the test compound was determined by the following equation. [formula] Each test was performed in triplicate.
row,"125I-endothelin-1 binding inhibition, Inhibition (%)",Compound
1,87%,cyclo([dW][dD]P[d(aIle)]L) [Example 32]
2,78%,cyclo(-DTrp(CHO)-DAsp-Met(O)-DVal-Leu-) [Example 77]
3,87%,cyclo(-DTrp(CHO)-DCys(O3 Na)-Pro-DThg-Leu-) [Example 75]

# Same assay, conditions: 1.1 μM of the test compound; porcine aorta smooth muscle membrane; 25° C, 4 hours; read-out: 125I-endothelin-1 binding inhibition, Inhibition (%)
row,Compound,inhibition at 1.1 µM
1,"CC(C)C[C@@H]1NC(=O)[C@@H](C(C)C)NC(=O)[C@@H]2CCCN2C(=O)[C@@H](CC(=O)O)NC(=O)[C@@H](Cc2cn(C=O)c3ccccc23)NC1=O [Example 51, cyclo(-DTrp(CHO)-DAsp-Pro-DVal-Leu-)] (cyclo(L[dW](For)[dD]P[dV]))",84%
2,"CC[C@@H](C)[C@H]1NC(=O)[C@@H]2CCCN2C(=O)[C@@H](CC(=O)O)NC(=O)[C@@H](Cc2c[nH]c3ccccc23)NC(=O)[C@H](CC(C)C)NC1=O [Example 31, cyclo(-DTrp-DAsp-Pro-DIle-Leu-)] (cyclo(L[dW][dD]P[dI]))",80%
3,"CCCC[C@@H]1NC(=O)[C@@H](C(C)C)NC(=O)[C@@H]2CCCN2C(=O)[C@@H](CS(=O)(=O)O)NC(=O)[C@@H](Cc2c[nH]c3ccccc23)NC1=O [Example 5, cyclo(-DTrp-DCys(O3 Na)-Pro-DVal-Nle-)] (cyclo([Nle][dW][dCya]P[dV]))",81%
4,"CCCC[C@@H]1NC(=O)[C@@H](C(C)C)NC(=O)[C@@H]2CCCN2C(=O)[C@@H](CC(=O)O)NC(=O)[C@@H](Cc2c[nH]c3ccccc23)NC1=O [Example 41, cyclo(-DTrp-DAsp-Pro-DVal-Nle-)] (cyclo([Nle][dW][dD]P[dV]))",83%
5,"CC(C)C[C@@H]1NC(=O)[C@@H](C(C)C)NC(=O)[C@H](CS)NC(=O)[C@@H](CC(=O)O)NC(=O)[C@@H](Cc2c[nH]c3ccccc23)NC1=O [Example 25, cyclo(-DTrp-DAsp-Cys-DVal-Leu-)] (cyclo(C[dV]L[dW][dD]))",74%
6,"CC(C)C[C@@H]1NC(=O)[C@@H](C(C)C)NC(=O)[C@H](CC(=O)O)NC(=O)[C@@H](CC(=O)O)NC(=O)[C@@H](Cc2c[nH]c3ccccc23)NC1=O [Example 22, cyclo(-DTrp-DAsp-Asp-DVal-Leu-)] (cyclo(D[dV]L[dW][dD]))",75%
7,"CC(C)C[C@@H]1NC(=O)[C@@H](C(C)C)NC(=O)[C@H](CCC(N)=O)NC(=O)[C@@H](CC(=O)O)NC(=O)[C@@H](Cc2c[nH]c3ccccc23)NC1=O [Example 21, cyclo(-DTrp-nAsp-Gln-DVal-Leu-)] (cyclo(L[dW][dD]Q[dV]))",73%
8,"CC(C)C[C@@H]1NC(=O)[C@@H](C(C)C)NC(=O)[C@@H]2CCCN2C(=O)[C@@H](CCC(=O)O)NC(=O)[C@@H](Cc2c[nH]c3ccccc23)NC1=O [Example 10, cyclo(-DTrp-DGlu-Pro-DVal-Leu-)] (cyclo(L[dW][dE]P[dV]))",54%
9,"CC(C)C[C@@H]1NC(=O)[C@@H](C(C)C)NC(=O)[C@H](CCCNC(=N)N)NC(=O)[C@@H](CC(=O)O)NC(=O)[C@@H](Cc2c[nH]c3ccccc23)NC1=O [Example 19, cyclo(-DTrp-DAsp-Arg-DVal-Leu-)] (cyclo(L[dW][dD]R[dV]))",70%
10,"CC(C)C[C@@H]1NC(=O)[C@@H](C(C)C)NC(=O)[C@H]([C@@H](C)O)NC(=O)[C@@H](CC(=O)O)NC(=O)[C@@H](Cc2c[nH]c3ccccc23)NC1=O [Example 27, cyclo(-DTrp-DAsp-Thr-DVal-Leu-)] (cyclo(L[dW][dD]T[dV]))",66%
11,"CC(C)C[C@@H]1NC(=O)[C@@H](C(C)C)NC(=O)[C@@H]2CCCCN2C(=O)[C@@H](CC(=O)O)NC(=O)[C@@H](Cc2c[nH]c3ccccc23)NC1=O [Example 47, cyclo(-DTrp-DAsp-Pip-DVal-Leu-)] (cyclo(L[dW][dD][Pip][dV]))",89%
12,"CC(C)[C@H]1NC(=O)[C@H](CC(=O)O)NC(=O)[C@@H](CC(=O)O)NC(=O)[C@@H](Cc2c[nH]c3ccccc23)NC(=O)[C@H](C)NC1=O [Example 38, cyclo(-DTrp-DAsp-Asp-DVal-Ala-)] (cyclo(A[dW][dD]D[dV]))",21%
13,"CC(C)C[C@@H]1NC(=O)[C@@H](C(C)C)NC(=O)[C@H](CCCCN)NC(=O)[C@@H](CC(=O)O)NC(=O)[C@@H](Cc2c[nH]c3ccccc23)NC1=O [Example 4, cyclo(-DTrp-DAsp-Lys-DVal-Leu-)] (cyclo(K[dV]L[dW][dD]))",74%

# Other lines, results leading:
row,inhibition at 1.1 µM,Compound
1,83%,"CC(C)C[C@@H]1NC(=O)[C@@H](c2ccco2)NC(=O)[C@@H]2CCCN2C(=O)[C@@H](CC(=O)O)NC(=O)[C@@H](Cc2c[nH]c3ccccc23)NC1=O [Example 80, cyclo(-DTrp-DAsp-Pro-DFug-Leu-)] (cyclo(L[dW][dD]P[X7]))"
2,43%,"CC(C)[C@H]1NC(=O)[C@@H]2CCCN2C(=O)[C@@H](CC(=O)O)NC(=O)[C@@H](Cc2c[nH]c3ccccc23)NC(=O)[C@H](Cc2c[nH]cn2)NC1=O [Example 84, cyclo(-DTrp-DAsp-Pro-DVal-His)] (cyclo(H[dW][dD]P[dV]))"
3,38%,"CC(C)C[C@@H]1NC(=O)[C@@H](C(C)C)NC(=O)CCNC(=O)[C@@H](CC(=O)O)NC(=O)[C@@H](Cc2c[nH]c3ccccc23)NC1=O [Example 66, cyclo(-DTro-DAsp-β-Ala-DVal-Leu-)] (cyclo(L[dW][dD][βAla][dV]))"
4,85%,"CC(C)C[C@@H]1NC(=O)[C@@H](C(C)C)NC(=O)CN(C)C(=O)[C@@H](CC(=O)O)NC(=O)[C@@H](Cc2c[nH]c3ccccc23)NC1=O [Example 65, cyclo(-DTrp-DAsp-Sar-DVal-Leu-)] (cyclo(L[dW][dD][Sar][dV]))"
5,88%,"CC(C)C[C@@H]1NC(=O)[C@@H](c2cccs2)NC(=O)[C@@H]2C[C@@H](O)CN2C(=O)[C@@H](CC(=O)O)NC(=O)[C@@H](Cc2c[nH]c3ccccc23)NC1=O [Example 79, cyclo(-DTrp-DAsp-trans-Hyp-DThg-Leu-)] (cyclo([Hyp][dGly(2-thienyl)]L[dW][dD]))"
6,60%,"CC(C)C[C@@H]1NC(=O)C(C)(C)NC(=O)[C@@H]2CCCN2C(=O)[C@@H](CC(=O)O)NC(=O)[C@@H](Cc2c[nH]c3ccccc23)NC1=O [Example 62, cyclo(-DTrp-nAsp-Pro-Aib-Leu-)] (cyclo([Aib]L[dW][dD]P))"
7,79%,"CC(C)C[C@@H]1NC(=O)[C@@H](c2cccs2)NC(=O)CN(C)C(=O)[C@@H](CC(=O)O)NC(=O)[C@@H](Cc2c[nH]c3ccccc23)NC1=O [Example 72, cyclo(-DTrp-DAsp-Sar-DThg-Leu-)] (cyclo(L[dW][dD][Sar][dGly(2-thienyl)]))"
8,85%,"CC(C)C[C@H]1C(=O)N[C@H](Cc2c[nH]c3ccccc23)C(=O)N[C@H](CC(=O)O)C(=O)N2CCC[C@H]2C(=O)N[C@H](C(C)C)C(=O)N1C [Example 69, cyclo(-DTrp-DAsp-Pro-DVal-MeLeu-)] (cyclo([NMeL][dW][dD]P[dV]))"
9,23%,"CC(C)C[C@@H]1NC(=O)[C@@H](C(C)C)NC(=O)[C@@H]2CCCN2C(=O)[C@@H](CC(=O)O)NC(=O)[C@@H](Cc2cn(CC(N)=O)c3ccccc23)NC1=O [Example 91, cyclo(-DTrp(CH2 CONH2)-DAsp-Pro-DVal-Leu-)] (cyclo(L[X3][dD]P[dV]))"
10,83%,"CC(C)C[C@@H]1NC(=O)C2(CCCCC2)NC(=O)[C@@H]2CCCN2C(=O)[C@@H](CC(=O)O)NC(=O)[C@@H](Cc2c[nH]c3ccccc23)NC1=O [Example 64, cyclo(-DTrp-DAsp-Pro-Ac6 c-Leu-)] (cyclo([Ac6c]L[dW][dD]P))"
11,28%,"CNC(=O)Cn1cc(C[C@H]2NC(=O)[C@H](CC(C)C)NC(=O)[C@@H](C(C)C)NC(=O)[C@@H]3CCCN3C(=O)[C@@H](CC(=O)O)NC2=O)c2ccccc21 [Example 92, cyclo(-DTrp(CH2 CONHCH3)-DAsp-Pro-DVal-Leu-)] (cyclo(L[X2][dD]P[dV]))"
12,79%,"CC(C)C[C@@H]1NC(=O)[C@@H](C(C)(C)S)NC(=O)[C@@H]2CCCN2C(=O)[C@@H](CC(=O)O)NC(=O)[C@@H](Cc2c[nH]c3ccccc23)NC1=O [Example 60, cyclo(-DTrp-DAsp-Pro-DPen-Leu-)] (cyclo(L[dW][dD]P[dPen]))"

# Same assay, conditions: read-out: 125I-endothelin-1 binding inhibition, Inhibition (%)
row,Compound,inhibition at 1.1 µM
1,"CC(C)C[C@@H]1NC(=O)[C@@H](C(C)C)NC(=O)[C@H](CS(=O)(=O)O)NC(=O)[C@@H](CS(=O)(=O)O)NC(=O)[C@@H](Cc2c[nH]c3ccccc23)NC1=O [Example 42, cyclo(-DTrp-DCys(O3 Na)-Cys(O3 Na)-DVal-Leu-)] (cyclo([Cya][dV]L[dW][dCya]))",79%
